Literature values as cited in patent US20100136106A1, “Modified Release Famciclovir Compositions” (priority 2005, published 2010).
Read-outs that look alike come from different tables or passages of the source. Values belong to the molecule of their own block, whether it stands above or below them.

Experiments:
viral DNA polymerase = conditions: competitively with deoxyguanine triphosphate
[1] = for metabolite, % of the dose in the urine: in vivo, po
[2] = for solubility in water: 25° C.
[3] = single 500 mg oral dose of radiolabeled famciclovir
cytochrome P450 = conditions: human liver microsomes
[4] = below 85% relative humidity
[5] = not given; remark: listed apart in the source
[6] = not given; remark: listed apart in the source
[7] = for AUC(0-∞) / Cmax / Tmax: healthy male volunteers
[8] = 500 mg famciclovir t.i.d. for 7 days
[9] = 5 mg/kg radiolabeled penciclovir, 1-hour infusion
[10] = intravenous penciclovir
[11] = 500 mg famciclovir single oral dose, patients with herpes zoster

Molecule: penciclovir triphosphate
- inhibition of viral DNA polymerase (viral DNA polymerase): inhibit viral DNA polymerase competitively

Molecule: CC(=O)OCC(CO)CCn1cnc2cnc(N)nc21 (stereo not drawn) [6-deoxy monoacetylated penciclovir]
- metabolite, % of the dose in the urine [1]: < 0.5%

Molecule: CC(=O)OCC(CCn1cnc2cnc(N)nc21)COC(C)=O [monohydrate]
- solubility in water ([2]; monohydrate that precipitates): 2-3 % w/v

Molecule: Nc1ncc2ncn(CCC(CO)CO)c2n1 [6-deoxy penciclovir]
- metabolite, % of the dose in the urine [1]: 5%

Now from value to molecule:

- famciclovir detected in plasma or urine ([1]; oral administration of famciclovir): Little or no
- administered radiolabeled dose collected in urine ([3]; first 6 hours): Approximately 60%
- administered radioactivity recovered in feces ([3]; over 72 hours): 27%
- administered radioactivity recovered in urine ([3]; over 72 hours): 73%
- decrease in Cmax (given 2 hours after a meal compared to 2 hours before a meal): 18%
- effect of food on absorption (regular doses): does not affect the extent of absorption
- solubility in acetone [2]: freely soluble
- solubility in ethanol [2]: sparingly soluble
- solubility in isopropanol [2]: sparingly soluble
- solubility in methanol [2]: freely soluble
- solubility in water ([2]; initially): > 25 % w/v
- role of cytochrome P450 in famciclovir metabolism (cytochrome P450): does not play an important role
- hygroscopicity [4]: not hygroscopic
- AUC (mean±SD) [5, 11]: 12100 ± 1700 ng·h/mL
- Cmax (mean±SD) [5, 11]: 4000 ± 700 ng/mL
- Tmax (mean±SD) [5, 11]: 42 ± 12 min
- partition coefficient P ([6]; octanol/phosphate buffer (pH 7.4)): 2.08
- partition coefficient P ([6]; octanol/water (pH 4.8)): 1.09
- AUC(0-∞) ([7]; 125 mg single oral dose): 2240 ng·h/mL
- Cmax ([7]; 125 mg single oral dose): 800 ng/mL
- Tmax ([7]; 125 mg single oral dose): 54 min
- AUC(0-∞) ([7]; 250 mg single oral dose): 4480 ng·h/mL
- Cmax ([7]; 250 mg single oral dose): 1600 ng/mL
- Tmax ([7]; 250 mg single oral dose): 54 min
- AUC(0-∞) ([7]; 500 mg single oral dose): 8950 ng·h/mL
- Cmax ([7]; 500 mg single oral dose): 3300 ng/mL
- Tmax ([7]; 500 mg single oral dose): 54 min
Molecule: CC(=O)OCC(CCn1cnc2cnc(N)nc21)COC(C)=O [famciclovir, 2-[2-(2-amino-9H-purin-9-yl)ethyl]-1,3-propanediol diacetate]

- accumulation of penciclovir [8]: no accumulation
- share of the radioactivity excreted in the urine [9]: 91%
- dose excreted in urine ([9]; first 6 hours): 83%
- administered radioactivity recovered in urine ([9]; over 24 hours): Approximately 94%
- share of the radioactivity excreted in the urine [3]: 82%
- decrease of penciclovir Cmax with food (capsule formulation of famciclovir with food (approximately 910 Kcal and 26% fat)): approximately 50%
- AUC of penciclovir greater in patients with herpes zoster as compared to healthy volunteers ([5]; 500 mg famciclovir oral): approximately 35%
- half-life ([5]; seven patients with herpes zoster): 180 ± 66 min
- dose proportionality of penciclovir concentrations ([7]; famciclovir dose range of 125 mg to 750 mg, single dose): increased in proportion to dose
- renal clearance as share of total plasma clearance [10]: 74.5±8.8%
Molecule: Nc1nc2c(ncn2CCC(CO)CO)c(=O)[nH]1 [penciclovir]

- metabolite, % of the dose in the urine [1]: < 0.5%
Molecule: CC(=O)OCC(CO)CCn1cnc2c(=O)[nH]c(N)nc21 (stereo not drawn) [monoacetylated penciclovir]
